According to patent US20090098209A1, “PHARMACEUTICAL CO[…]-SOLUBLE DERIVATIVES OF PROPOFOL AND METHODS OF ADMINISTERING SAME VIA PULMONARY ADMINISTRATION” (UNIVERSITY OF KANSAS, priority 2007, published 2009):

Legend:
[1] = Study 1: pulmonary delivery by nebulizer and facemask, plasma propofol and sedation; format: in vivo; details: one male beagle dog, inhalation of 3 mL of 250 mg/mL aqueous solution over approximately 10 min
Procedure: (§1) A preliminary study was conducted to assess the conversion of O-phosphonooxymethyl propofol disodium salt to the pharmacologically active drug propofol following pulmonary delivery. A male beagle dog was fasted overnight prior to the study. O-phosphonooxymethyl propofol disodium salt was dissolved in water (250 mg/mL). 3-mL of the O-phosphonooxymethyl propofol disodium salt solution was delivered over approximately 10 min to the dog via inhalation through a nebulizer connected to a facemask that was placed over the dog's muzzle. The actual dose of O-phosphonooxymethyl propofol disodium salt delivered to the dog is less than the dose nebulized due to vapor loss during exhalation. Two mL blood samples were collected via a catheter placed in the cephalic vein prior to the study. Samples were collected for 1.5 hours post-dose at 5, 10, 20, 30, 40, 50, 60 and 90 minutes after initiation of delivery by inhalation. The concentration of propofol in the blood samples was determined using HPLC with fluorescence detection.
These finding are significant, as it is known that humans are more susceptible to the affects of propofol than dogs. Therefore, the onset of action would be very rapid in humans.

[2] = Study 2: pulmonary delivery by nebulizer for a defined time (10 min), plasma propofol and sedation; format: in vivo; details: three male beagle dogs, 250 mg/mL aqueous solution nebulized for 10 min
Procedure: as §1, with “A second” for “A preliminary”, “delivery. The study design was essentially the same as Study 1 above except that the O-phosphonooxymethyl propofol disodium salt solution was nebulized for a defined period of time (10 min) instead of to complete nebulization of the solution. Three” for “delivery. A”, “beagle dogs” for “beagle dog”, “mg/mL). The” for “mg/mL). 3-mL of the”, “delivered for” for “delivered over approximately”
These finding are significant, as it is known that humans are more susceptible to the effects of propofol than dogs. […]

[3] = sample at 5 minutes post dose initiation, HPLC with fluorescence detection

## CC(C)c1cccc(C(C)C)c1OCOP(=O)([O-])[O-].[Na+].[Na+] [O-phosphonooxymethyl propofol disodium salt]
[1]
  signs of sedation, time after the completion of the inhaled dose: approximately 15 minutes
[1]; [3]
  concentration of propofol in the plasma, first blood sample: significant concentration of propofol in the plasma
[2]
  signs of sedation, time after the completion of the inhaled dose: 10 to 15 min
[2]; [3]
  concentration of propofol in the plasma, first blood sample: significant concentration of propofol in the plasma
